Laboratory results reported in US11998602B2, “Methods for promoting myelination and for treating demyelinating diseases” (The Scripps Research Institute, priority 2018, dated 2024).

Experiments:
[1] = system: Rat primary optic nerve OPCs; test: In vitro OPC differentiation assay, MBP expression by Western blot; type: cell-based; settings: for Effect of supplementation on drug-induced OPC differentiation: added to drug-induced differentiation conditions; for Observed maximal in vitro efficacy of OPC differentiation compared to T3: drug alone
Protocol: Rat primary optic nerve OPCs were isolated by panning (>99% A2B5^+) and cultured in poly-D-lysine (10 μg/ml)-coated TC dishes in OPC culture media (Neurobasal Media, Invitrogen) supplemented with B27-without vitamin A (Invitrogen), 1× non-essential amino acids, 1× Glutamax, 1× anti-anti, β-mercaptoethanol and PDGF-AA (50 ng/ml; Peprotech) at 37° C. with 5% CO2. The culture medium was replaced every 48 h and cells were collected before the confluency reached 60% to maintain a naive state. For differentiation, OPCs were plated at 1 million cells in one 10 cm petri-dish filled with differentiation media, which is identical to the culture media, but with PDGF-AA at 2 ng/ml. T3 and DMSO were used as the positive control and negative control, respectively. Five replicates of cells were collected at different times (0, 3, and 6 days) for metabolomics studies.
Western blot analysis. OPCs were plated in basal differentiation medium at 1.7×10^5 cells/well and treated for 6 days with benztropine (0.5 μM), miconazole (2 μM) with and without the tested endogenous metabolites, T3 (1 μM) or DMSO. After washing with PBS, cells were collected in ice cold RIPA buffer containing protease and phosphatase inhibitors. Following incubation on ice for >20 min and sonication, lysed cells were centrifuged (16,000 g, 15 min at 4° C.). Total protein was quantified using a BCA analysis and 25 μg of protein from each sample was denatured by boiling with Bolt LDS Sample Buffer (4×) and Sample Reducing Agent (10×). Proteins were electrophoresed using Bolt 4-12% Bis-Tris gels (Life Technologies) and transferred to a PVDF membrane (Bio-Rad). The membrane was blocked with Odyssey PBS Blocking Buffer (LI-COR) and incubated overnight at 4° C. with anti-MBP (mouse, 1:2000) and anti-actin (mouse, 1:5000). Blots were incubated with […] secondary donkey anti-mouse antibody (LI-COR, 1:7500) and imaged using Odyssey CLx and Image Studio (LI-COR).

[2] = system: Rat primary optic nerve OPCs; test: High content imaging assay of OPC differentiation (MBP, A2B5, DAPI cell counts); type: cell-based
Protocol: Rat primary optic nerve OPCs were isolated by panning (>99% A2B5^+) and cultured in poly-D-lysine (10 μg/ml)-coated TC dishes in OPC culture media (Neurobasal Media, Invitrogen) supplemented with B27-without vitamin A (Invitrogen), 1× non-essential amino acids, 1× Glutamax, 1× anti-anti, β-mercaptoethanol and PDGF-AA (50 ng/ml; Peprotech) at 37° C. with 5% CO2. The culture medium was replaced every 48 h and cells were collected before the confluency reached 60% to maintain a naive state. For differentiation, OPCs were plated at 1 million cells in one 10 cm petri-dish filled with differentiation media, which is identical to the culture media, but with PDGF-AA at 2 ng/ml. T3 and DMSO were used as the positive control and negative control, respectively. Five replicates of cells were collected at different times (0, 3, and 6 days) for metabolomics studies. High content imaging. For dose-response co-treatment experiments, black, clear-bottom 384-well plates (Greiner) were coated with poly-D-lysine (10 μg ml^−1 in PBS). miconazole and benztropine were added at 8 doses in differentiation media; 3-fold dilutions down from 10 μM. taurine was then added at 8 concentrations; 3-fold dilutions down from 20 mM. This 384-well format was also utilized for experiments combining benztropine (0.5 μM), miconazole (2 μM) or T3 (1 μM) with propargylglycine (0.1, 3, 10, 30 μM), reduced glutathione (1, 10, 30, 100 μM) or ascorbic acid ([…]). OPCs were then seeded at a density of 1,000 cells per well, and the plates were incubated at 37° C. with 5% CO2 for 6 days. For time course experiments, cells were seeded at a density of 5,000 cells per well in poly-D-lysine-coated 96-well plates. Cells were treated with DMSO (0.1%), benztropine (0.5 μM), miconazole (2 μM) or T3 (1 μM) on day 0, and taurine (20 mM) was added in combination at 0, 1 or 3 days post-drug treatment. The plates were incubated at 37° C. with 5% CO2 for 6 days. On day 6, cells were then fixed for 20 min with 4% formaldehyde solution and stained with mouse anti-Myelin Basic Protein (MBP) antibody (MAB382, Millipore) or anti-A2B5 antibody (MAB312, Millipore) in 3% BSA, 0.3% Triton X-100 with overnight incubation at 4° C. The cells were washed and incubated with secondary antibody (goat anti-mouse Alexa Fluor488) and DAPI (Invitrogen) for 1 h at room temperature. The cells were washed and plates were sealed and imaged using an Opera confocal imaging reader (Perkin Elmer) or a Cellomics Cell Insight imaging reader (Thermo). An air ×10 lens was used to capture 9 images per well at both wavelengths (488 and 365 nm), with each image representing a different unique locations field in a single well. For image analysis, DAPI-stained nuclei and MBP-positive or A2B5-positive cell bodies were detected using an algorithm that selects for positive cell bodies and nuclei within a range of fluorescent emission values and sizes as determined by fitting parameters to positive (T3, 1 μM) and negative controls (DMSO, 0.1%). The numbers of DAPI-positive objects were enumerated in experiments where cell counts were required. Numerical results from the analyzed images were later exported for analysis using Excel (Microsoft) and/or Genedata software.

[3] = system: primary mouse cortical neurons co-cultured with OPCs; test: In vitro OL maturation assay, MBP-colocalization with co-cultured axons; type: cell-based, rat; settings: 0.5 μM benztropine, 1.0 μM miconazole or 2 mM taurine alone, 14 days
Protocol: In vitro OL maturation assay. Cortical and hippocampal tissue was dissected from C57BL/6 mice at embryonic day 14 and dissociated in 0.5% Trypsin with 100 U/mL DNase I diluted in HBSS (+/+) for 10 min at 37° C. Reaction was stopped by supplementing to a final concentration of 10% v/v FBS, 100 μg/mL Soybean Trypsin Inhibitor and 10 U/mL DNase I. Cells were resuspended in plating media consisting of equal volumes of FCS, HBSS (+/+), High-Glucose DMEM with L-glutamine, and F-12 with L-glutamine, then plated onto acid pre-washed German glass coverslips coated with 50 μg/mL Poly-D-Lysine and 20 μg/mL Laminin at a density of 50,000 cells/cm^2. Cells were allowed to attach for 2 hrs and then coverslips were rinsed with PBS before being transferred to a 24-well plate containing 0.5 mL growth media consisting of: Neurobasal medium, B27 supplement (Gibco), 0.5× Glutamax (Thermo), 5 μg/mL gentamycin and 5 μM glutamic acid. Half of the cell media was replaced after 3 DIV with supplemental growth media not containing glutamic acid^47. After 5 DIV, rat-derived cortical OPCs were added to the neuronal culture at a density of 5,000 cells/cm^2. Co-culture media used to resuspend and plate OPCs consisting of a 1:3 mixture of neuronal growth supplement (as above) and oligodendrocyte differentiation media, containing DMEM/F-12 (with L-glutamine), insulin-free N2 supplement, 1× Glutamax, 1×MEM non-essential amino acids, 1× β-mercaptoethanol, 2 ng/mL PDGF and 5 μg/mL gentamycin. All drugs and taurine co-treatment were added once to culture upon plating of OPCs at the following concentrations: 0.5 μM benztropine, 1.0 μM miconazole, each with or without 2 mM taurine. Cultures were maintained by replacing half of the media every three days, maintaining an equivalent concentration of taurine throughout in appropriate wells. […] Co-localization was quantified within regions of interest delineated as the periphery of individual oligodendrocytes. The co-localization index (adapted from a previously described method^48) was calculated as total proportion of co-localized 3D surface area between Tuj1 (neuron) and oligodendrocyte (MBP) over total Tuj1 (neuronal process) area enclosed within each oligodendrocyte process tree as the selected region of interest (ROI, see FIG. 3B″). Mean colocalization values for each condition were normalized to the DMSO condition mean analyzed statistically using Prism software (GraphPad, v7) for two-way ANOVA comparisons (Drug Treatment×Taurine Supplement) with Tukey post-tests for statistical significance. […]

[4] = system: OPCs; test: Mitochondrial respiration assay (oxygen consumption rate, XFe96 Seahorse); type: cell-based, rat; settings: miconazole treatment alone
Protocol: Mitochondrial respiration assay. Cellular oxygen consumption rate (OCR) was measured using an XFe96 extracellular flux analyzer (Seahorse Biosciences). OPCs were seeded at 40,000 cells/well in PLP-coated XFe96 plates and cultured for 6 days with taurine (2 and 20 mM) alone, or together with miconazole and benztropine. Cells were then incubated in assay medium (DMEM with 20 mM glucose, 5 mM pyruvate and 5 mM sodium bicarbonate, pH˜7.4) for at least 30 min prior to the assay. Media to deliver a final assay well concentration corresponding to of 1 μM oligomycin, 2 μM carbonyl cyanide 4-(trifluoromethoxy) phenylhydrazone (FCCP) and 2 μM rotenone+2 μM antimycin A were pre-loaded into the compound delivery ports of the system. The assay starts with the recording of the basal OCR, followed by recording of the OCR in response to different compounds that constitute the Mitochondria Stress Test (Seahorse Biosciences, Agilent). Once the basal OCR was measured, the compounds were added sequentially and the effects on OCR measured 3 times every 5 min. Oligomycin blocks ATP synthase; FCCP dissipates the inner membrane potential enabling maximum electron flux through the electron transport chain (ETC); rotenone+antimycin A inhibit complexes I and III, respectively, thereby blocking the entry of electrons in the ETC and shutting down mitochondrial activity.

## CN(CC(=O)O)C(=N)NP(=O)(O)O [PCr, phosphocreatine]
[1]
  Effect of supplementation on drug-induced OPC differentiation: some additive effects

## C#CCC(N)C(=O)O (stereo not shown) [PPG, propargylglycine]
[2]; PPG
  Impact on differentiation efficiency under basal vehicle treated conditions: virtually no impact
[2]; PPG 10 μM added at day 0 or day 3, all drug-induced conditions
  Observed efficacy of drug-induced differentiation: significantly enhance
[2]; PPG 10 μM, T3 1 μM
  Overall cell number with T3 treatment: enhance
[2]; PPG, DMSO, benztropine (0.5 μM) or miconazole (2 μM)
  Impact on overall survival in OPC cultures: not found to impact

## CN1[C@@H]2CC[C@H]1C[C@@H](OC(c1ccccc1)c1ccccc1)C2 [benztropine, reference compound]
[1]
  Observed maximal in vitro efficacy of OPC differentiation compared to T3: suboptimal
[3]
  MBP-colocalization with axons, treatment alone vs. DMSO (Tukey post hoc): significant

## CN(CC(=O)O)C(=N)N [creatine]
[1]
  Effect of supplementation on drug-induced OPC differentiation: some additive effects

## Clc1ccc(COC(Cn2ccnc2)c2ccc(Cl)cc2Cl)c(Cl)c1 (stereo not shown) [miconazole, reference compound]
[4]
  Impact on OCR values compared to DMSO or benztropine treatment: negative impact
[1]
  Observed maximal in vitro efficacy of OPC differentiation compared to T3: suboptimal
[3]
  MBP-colocalization with axons, treatment alone vs. DMSO (Tukey post hoc): no significant difference

## reduced glutathione
[2]; 10 μM GSH, DMSO, day 6
  Differentiation efficiency (MBP-positive OLs) under basal conditions: no significant effect
[2]; 10 μM GSH, T3 (1 μM), day 6
  Observed total nuclei count in T3-induced differentiation: significantly enhance
  Overall efficiency of T3-induced differentiation: significantly enhance
[2]; reduced glutathione
  Impact on total cell number in benztropine- or miconazole-induced differentiation: not found to be significant
[2]; reduced glutathione, lesser extent than following taurine addition
  Overall efficiency of benztropine- or miconazole-induced differentiation: enhance
